Measurements: patent US20180021450A1, “ANTI-STAPHYLOCOCCUS AUREUS ANTIBODY RIFAMYCIN CONJUGATES AND USES THEREOF” (Genentech, Inc., priority 2014, published 2018)
≈ marks a conversion by molar mass, not a printed value. Where two headings read alike, the source gives them in different places.

Tests used:
[1] = tested on: MRSA (NRS384 strain of USA300); test: MIC determination for extracellular bacteria in liquid culture; type: cell-based; settings: Staphylococcus aureus, read-out: Extracellular MRSA MIC
Procedure: The MIC for extracellular bacteria was determined by preparing serial 2-fold dilutions of the antibiotic in Tryptic Soy Broth. Dilutions of the antibiotic were made in quadruplicate in 96 well culture dishes. MRSA (NRS384 strain of USA300) was taken from an exponentially growing culture and diluted to 1×10^4 CFU/mL. The bacteria was cultured in the presence of antibiotic for 18-24 hours with shaking at 37° C. and bacterial growth was determined by reading the Optical Density (OD) at […]. The MIC was determined to be the dose of antibiotic that inhibited bacterial growth by >90%.
(§1) For extracellular bacteria, MRSA was cultured overnight in Tryptic Soy Broth, and the MIC was determined to be the minimum antibiotic dose that prevented growth. For intracellular bacteria, murine peritoneal macrophages were infected with MRSA and cultured in the presence of gentamycin to kill extracellular bacteria. Test antibiotics were added to the culture medium one day post infection, and the total number of surviving intracellular bacteria was determined 24 hours later. The expected serum concentrations for clinically relevant antibiotics was reported in Antimicrobial Agents, Andre Bryskier. ASM Press, Washington D.C. (2005).

[2] = expected serum concentration, from Antimicrobial Agents, Bryskier (2005); cited from earlier work
[3] = tested on: intracellular MRSA sequestered inside murine macrophages; test: MIC determination for intracellular bacteria inside murine peritoneal macrophages; type: cell-based, Staphylococcus aureus; settings: for MIC: Staphylococcus aureus, MRSA, read-out: Intracellular MRSA MIC; for killing of MRSA sequestered inside macrophages: macrophages exposed to clinically achievable concentrations
Procedure: Intracellular MIC was determined on bacteria that were sequestered inside mouse peritoneal macrophages (see below for generation of murine peritoneal macrophages). Macrophages were plated in 24 well culture dishes at a density of 4×10^5 cells/mL and infected with MRSA at a ratio of 10-20 bacteria per macrophage. Macrophage cultures were maintained in growth media supplemented with 50 ug/mL of gentamycin (an antibiotic that is active only on extracellular bacteria) to inhibit the growth of extracellular bacteria and test antibiotics were added to the growth media 1 day after infection. The survival of intracellular bacteria was assessed 24 hours after addition of the antibiotics. Macrophages were lysed with Hanks Buffered Saline Solution supplemented with 0.1% Bovine Serum Albumin and 0.1% Triton-X, and serial dilutions of the lysate were made in Phosphate Buffered Saline solution containing 0.05% Tween-20. The number of surviving intracellular bacteria was determined by plating on Tryptic Soy Agar plates with 5% defibrinated sheep blood.
Peritoneal macrophages were isolated from the peritoneum of 6-8 week old Balb/c mice (Charles River Laboratories, Hollister, Calif.). To increase the yield of macrophages, mice were pre-treated by intraperitoneal injection with 1 mL of thioglycolate media (Becton Dickinson). The thioglycolate media was prepared at a concentration of 4% in water, sterilized by autoclaving, and aged for 20 days to 6 months prior to use. Peritoneal macrophages were harvested 4 days post treatment with thioglycolate by washing the peritoneal cavity with cold phosphate buffered saline. Macrophages were plated in Dulbecco's Modified Eagle Medium (DMEM) supplemented with 10% Fetal Calf Serum, and 10 mM HEPES, without antibiotics, at a density of 4×10^5 cells/well in 24 well culture dishes. Macrophages were cultured over night to permit adherence to the plate. This assay was also utilized to test intracellular killing in non-phagocytic cell types. MG63 (CRL-1427) and A549 (CCL185) cell lines were obtained from ATCC and maintained in RPMI 1640 tissue culture media supplemented with 10 mM Hepes and 10% Fetal Calf Serum (RPMI-10). HUVEC cells were obtained from Lonza and maintained in EGM Endothelial Cell Complete Media (Lonza, Walkersville, Md.).
as §1

[4] = tested on: S. aureus (USA300) persister cells; test: Killing of persister cells by free antibiotics; type: cell-based, Staphylococcus aureus; settings: ciprofloxacin-treated cultures, second antibiotic 1 ug/ml
Procedure: Killing of persisters cells by free antibiotics: S. aureus (USA300) was taken from an overnight stationary phase culture, washed once in Tryptic Soy Broth (TSB) and then adjusted to a final concentration of 1×10^7 CFU/ml in a total volume of 10 mL of either TSB or TSB with ciprofloxicin (0.05 mM). Cultures were incubated with shaking at 37° C. for 6 hours and then the second antibiotic, either rifampicin (1 ug/ml) or another rifamycin-type antibiotic (1 ug/ml) was added. At the indicated times, samples were removed from each culture, washed once with PBS to remove the antibiotic and re-suspended in PBS. The total number of surviving bacteria was determined by plating serial dilutions of the bacteria on agar plates. At the final time point the remainder of each culture was collected and plated.

MRSA = test: In vitro transfer of infection to MG63 osteoblasts / HBMEC in the presence of vancomycin; type: cell-based, Staphylococcus aureus
Procedure: 6-8 week old female A/J mice (Jackson Lab) were infected with 1×10^8 CFU of the NRS384 strain of USA300 by peritoneal injection. The peritoneal wash was harvested 1 day post infection, and the infected peritoneal cells were treated with 50 ug/mL of lysostaphin diluted in Hepes Buffer supplemented with 0.1% BSA (HB buffer) for 30 minutes at 37° C. Peritoneal cells were then washed 2x in ice cold HB buffer. The peritoneal cells were diluted to 1×10^6 cells/mL in RPMI 1640 tissue culture media supplemented with 10 mM Hepes and 10% Fetal Calf Serum, and 5 ug/mL vancomycin. Free MRSA from the primary infection was stored overnight at 4° C. in Phosphate Buffered Saline Solution as a control for extracellular bacteria that were not subject to neutrophil killing.
MG63 cell line was obtained from ATCC (CRL-1427) and maintained in RPMI 1640 tissue culture media supplemented with 10 mM Hepes and 10% Fetal Calf Serum (RPMI-10). HBMEC cells (Catalog #1000) and ECM media (catalog#1001) were obtained from SciencCell Research Labs (Carlsbad, Calif.). Cells were plated in 24 well tissue culture plates and cultured to obtain a confluent layer. On the day of the experiment, the cells were washed once in RPMI (without supplements). MRSA or infected peritoneal cells were diluted in complete RPMI-10 and vancomycin was added at 5 ug/mL immediately prior to infection. Peritoneal cells were added to the osteoblasts at 1×10^6 peritoneal cells/mL. A sample of the cells was lysed with 0.1% triton-x to determine the actual concentration of live intracellular bacteria at the time of infection. The actual titer for all infections was determined by plating serial dilutions of the bacteria on Tryptic Soy Agar with 5% defibrinated sheep blood.
MRSA (free bacteria) was seeded in media, media+vancomycin, or media+vancomycin and plated on a monolayer of MG63 osteoblasts (FIG. 1E) or Human Brain Microvascular Endothelial Cells (HBMEC, FIG. 1F). Plates were centrifuged to promote contact of the bacteria with the monolayer. At each time point, the culture supernatant was collected to recover extracellular bacteria or adherent cells were lysed to release intracellular bacteria.

USA300 = test: In vivo transfer of infection model in A/J mice (free vs intracellular bacteria); set-up: species or system Staphylococcus aureus; settings: mice infected i.v. with free or intracellular bacteria, examined 4 days after infection
Procedure: USA300 stocks were prepared for infection from actively growing cultures in tryptic soy broth. Bacteria were washed 3× in phosphate buffered saline (PBS) and aliquots were frozen at −80° C. in PBS 25% glycerol. Intracellular Bacteria Infections: A/J mice were chosen for these experiments because they are easily infected with relatively low doses of MRSA (2×10^6 CFU/mouse). 7 week old female A/J mice were obtained from Jackson Lab and infected by peritoneal injection with 5×10^7 CFU of USA300. Mice were sacrificed 1 day post infection and the peritoneum was flushed with 5 mL of cold PBS. Peritoneal washes were centrifuged for 5 minutes at 1,000 rpm at 4° C. in a table top centrifuge. The cell pellet containing peritoneal cells was collected and cells were treated with 50 ug/mL of lysostaphin (Cell Sciences Inc. Canton Mass., CRL 309C) for 20 minutes at 37° C. to kill contaminating extracellular bacteria. Peritoneal cells were washed 3x in ice cold PBS to remove the lysostaphin. […]
These experiments compared the virulence of intracellular bacteria versus an equivalent dose of free-living planktonic bacteria, and determined whether the intracellular bacteria are able to establish infection in the presence of vancomycin in vivo. […]

[5] = extracellular bacteria grown in liquid culture (Tryptic Soy Broth)
[6] = bacteria sequestered inside murine macrophages, antibiotics added one day post infection, survivors counted 24 hours later

Row | SMILES | MIC [1] | Serum Cmax [2] | MIC ([3]; 24 h) | killing of MRSA sequestered inside macrophages [3] | MIC [1, 5] | MIC [3, 6] | higher dose to eliminate intracellular MRSA compared to the dose required to inhibit growth (MIC) of planktonic bacteria ([3]; intracellular vs planktonic MRSA USA300) | effect on viability of persister cells [4] | increase of intracellular S. aureus over a 24 hour period (MRSA; MG63 cells, primary human brain endothelial cells, A549 cells, constant exposure to vancomycin) | survival of intracellular MRSA in the leukocytes (MRSA; MRSA sequestered inside peritoneal cells, vancomycin 5 ug/mL) | surviving bacteria associated with the MG63 cells one day after infection (MRSA; planktonic bacteria plated on MG63 osteoblasts, vancomycin 5 ug/mL) | killing of planktonic bacteria exposed to vancomycin alone (MRSA; vancomycin 5 ug/mL, one day in culture) | establishment of infection (kidney, brain) under vancomycin therapy (USA300)
1 | CCCCCCCCCC(=O)N[C@@H](Cc1c[nH]c2ccccc12)C(=O)N[C@H](CC(N)=O)C(=O)N[C@@H](CC(=O)O)C(=O)N[C@@H]1C(=O)NCC(=O)N[C@@H](CCCN)C(=O)N[C@@H](CC(=O)O)C(=O)N[C@H](C)C(=O)N[C@@H](CC(=O)O)C(=O)NCC(=O)N[C@H](CO)C(=O)N[C@@H]([C@H](C)CC(=O)O)C(=O)N[C@@H](CC(=O)c2ccccc2N)C(=O)O[C@@H]1C [Daptomycin] | 4 µg/mL (≈ 2.47 µM) | 60 µg/mL | > 100 µg/mL | failed to kill | – | – | – | – | – | – | – | – | –
2 | CC(=O)NC[C@H]1CN(c2ccc(N3CCOCC3)c(F)c2)C(=O)O1 [Linezolid] | – | 20 µg/mL | – | failed to kill | 0.3 µg/mL (≈ 0.889 µM) | > 20 µg/mL | – | – | – | – | – | – | –
3 | CO[C@H]1/C=C/O[C@@]2(C)Oc3c(C)c(O)c4c(O)c(c(/C=N/N5CCN(C)CC5)c(O)c4c3C2=O)NC(=O)/C(C)=C\C=C\[C@H](C)[C@H](O)[C@@H](C)[C@@H](O)[C@@H](C)[C@H](OC(C)=O)[C@@H]1C [Rifampicin] | – | – | – | – | 0.004 µg/mL (≈ 0.00486 µM) | 50 µg/mL (≈ 60.8 µM) | 6,000 fold | no effect | – | – | – | – | –
4 | CN[C@H](CC(C)C)C(=O)N[C@H]1C(=O)N[C@@H](CC(N)=O)C(=O)N[C@H]2C(=O)N[C@H]3C(=O)N[C@H](C(=O)N[C@H](C(=O)O)c4cc(O)cc(O)c4-c4cc3ccc4O)[C@H](O)c3ccc(c(Cl)c3)Oc3cc2cc(c3O[C@@H]2O[C@H](CO)[C@@H](O)[C@H](O)[C@H]2O[C@H]2C[C@](C)(N)[C@H](O)[C@H](C)O2)Oc2ccc(cc2Cl)[C@H]1O [Vancomycin] | 1 µg/mL (≈ 0.69 µM) | 50 µg/mL | > 100 µg/mL | failed to kill | – | – | – | – | ~10 fold | About 15% | approximately 0.06 % of input | efficiently killed | intracellular bacteria, but not planktonic bacteria, were able to establish infection
